Experimental data published in ChEMBL document CHEMBL1201862, “PubChem BioAssay data set” (2004).
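Cells were grown in 96-well plates and exposed to each compound for 48 hours at five concentrations; endpoints were interpolated linearly between bracketing concentrations, or set to the highest concentration if not reached. GI50: concentration for 50% inhibition of growth.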 Active and inactive are the calls of the source. No stated cut-off is given here; in the data, active = GI50 up to about 1.1 µM and inactive = higher.

Experiments:
Experiment in all cases: DTP human tumour cell line panel, 48 h
A549 = system: A549
ACHN = system: ACHN
CCRF-CEM = system: CCRF-CEM
COLO 205 = system: COLO 205
EKVX = system: EKVX
HCT-15 = system: HCT-15
HOP-92 = system: HOP-92
HT-29 = system: HT-29
IGROV-1 = system: IGROV-1
MOLT-4 = system: MOLT-4
Malme-3M = system: Malme-3M
NCI-H460 = system: NCI-H460
OVCAR-5 = system: OVCAR-5
RPMI-8226 = system: RPMI-8226
RXF 393 = system: RXF 393
SK-MEL-5 = system: SK-MEL-5
SR = system: SR
UACC-257 = system: UACC-257
UO-31 = system: UO-31
MDA-N = system: MDA-N

SMILES | GI50 (A549) | GI50 (ACHN) | GI50 (CCRF-CEM) | GI50 (COLO 205) | GI50 (EKVX) | GI50 (HCT-15) | GI50 (HOP-92) | GI50 (HT-29) | GI50 (IGROV-1) | GI50 (MOLT-4) | GI50 (Malme-3M) | GI50 (NCI-H460) | GI50 (OVCAR-5) | GI50 (RPMI-8226) | GI50 (RXF 393) | GI50 (SK-MEL-5) | GI50 (SR) | GI50 (UACC-257) | GI50 (UO-31) | GI50 (MDA-N)
CN(C)CCNC(=O)c1cccc2nc3c(C(=O)NCCN(C)C)cccc3nc12 | 1.57 µM (inactive) | 0.668 µM (active) | 0.59 µM (active) | 0.612 µM (active) | 1.49 µM (inactive) | 2.98 µM | 2.9 µM (inactive) | 0.321 µM (active) | 1.78 µM (inactive) | 0.43 µM (active) | 1.77 µM (inactive) | 0.82 µM (active) | 2.3 µM (inactive) | 1.19 µM (inactive) | 1.44 µM (inactive) | 1.56 µM (inactive) | 0.368 µM (active) | 2.14 µM (inactive) | 1.41 µM (inactive) | –
COc1cc(Oc2nc3ccccc3nc2C(=O)O)cc(OC)c1OC | > 100 µM (inactive) | > 100 µM (inactive) | > 100 µM (inactive) | > 100 µM (inactive) | > 100 µM (inactive) | > 100 µM | > 100 µM (inactive) | > 100 µM (inactive) | > 100 µM (inactive) | > 100 µM (inactive) | > 100 µM (inactive) | > 100 µM (inactive) | > 100 µM (inactive) | > 100 µM (inactive) | > 100 µM (inactive) | > 100 µM (inactive) | > 100 µM (inactive) | > 100 µM (inactive) | > 100 µM (inactive) | –
CSc1nc(C)c(CCCl)c(Cl)n1 | > 100 µM (inactive) | > 100 µM (inactive) | 20.8 µM (inactive) | 35.2 µM (inactive) | > 100 µM (inactive) | > 100 µM | – | > 100 µM (inactive) | > 100 µM (inactive) | 27.4 µM (inactive) | > 100 µM (inactive) | > 100 µM (inactive) | – | – | > 100 µM (inactive) | 42.1 µM (inactive) | – | > 100 µM (inactive) | > 100 µM (inactive) | 49.8 µM (inactive)
N#C[C@H]1C(=O)C(c2nc3ccccc3[nH]2)S[C@H]1c1ccccc1 (stereo not given in full) | 45.4 µM (inactive) | 20 µM (inactive) | 38.4 µM (inactive) | 51.5 µM (inactive) | 28.9 µM (inactive) | 38 µM | 25.5 µM (inactive) | 32.2 µM (inactive) | 26.9 µM (inactive) | 33.7 µM (inactive) | 29.9 µM (inactive) | 35.1 µM (inactive) | 92.9 µM (inactive) | 25.5 µM (inactive) | 19.1 µM (inactive) | 25.2 µM (inactive) | 28.8 µM (inactive) | 63.2 µM (inactive) | 26.9 µM (inactive) | –
COc1nc(/C=N/NC(N)=S)nc(OC)n1 | 56.6 µM (inactive) | 43.8 µM (inactive) | – | > 100 µM (inactive) | > 100 µM (inactive) | – | > 100 µM (inactive) | 76 µM (inactive) | > 100 µM (inactive) | 56.8 µM (inactive) | 72.1 µM (inactive) | 43.5 µM (inactive) | > 100 µM (inactive) | > 100 µM (inactive) | > 100 µM (inactive) | – | 68.7 µM (inactive) | > 100 µM (inactive) | 56.1 µM (inactive) | –
CCOC(=O)C1=C(C)N(Cc2ccc(Cl)cc2Cl)C2(O)C(OC)CC(=O)C3C(=O)N(c4ccccc4)C(=O)C132 (stereo not given) | 2.34 µM (inactive) | 3.12 µM (inactive) | 0.466 µM (active) | 3.64 µM (inactive) | 3.4 µM (inactive) | 1.36 µM | 0.0541 µM (active) | 1.75 µM (inactive) | 4.34 µM (inactive) | 1.79 µM (inactive) | 10.6 µM (inactive) | 2.92 µM (inactive) | 2.41 µM (inactive) | 1.21 µM (inactive) | 1.11 µM (active) | 3.97 µM (inactive) | 1.57 µM (inactive) | 3.52 µM (inactive) | 4.54 µM (inactive) | –
NCCCC1NC(=O)/C(=C(O)/C=C/C2CCC[C@@H]2CC2SCCS2)C1=O (stereo not given in full) | > 100 µM (inactive) | > 100 µM (inactive) | 54.1 µM (inactive) | 37.2 µM (inactive) | > 100 µM (inactive) | – | 38.3 µM (inactive) | > 100 µM (inactive) | > 100 µM (inactive) | 43.4 µM (inactive) | > 100 µM (inactive) | > 100 µM (inactive) | > 100 µM (inactive) | > 100 µM (inactive) | > 100 µM (inactive) | > 100 µM (inactive) | 58.5 µM (inactive) | 76.9 µM (inactive) | > 100 µM (inactive) | –
Cc1[nH]n(C2=NCCN2)c(=O)c1C | > 100 µM (inactive) | > 100 µM (inactive) | > 100 µM (inactive) | > 100 µM (inactive) | > 100 µM (inactive) | > 100 µM | > 100 µM (inactive) | > 100 µM (inactive) | > 100 µM (inactive) | > 100 µM (inactive) | > 100 µM (inactive) | > 100 µM (inactive) | > 100 µM (inactive) | > 100 µM (inactive) | > 100 µM (inactive) | > 100 µM (inactive) | > 100 µM (inactive) | > 100 µM (inactive) | > 100 µM (inactive) | –
